This test relates to Nude mice, LX-1 lung xenograft intrarenal, tumor weight T/C. Briefly: NCI In Vivo Anticancer Drug Screen. Data for tumor model Human Lung LX-1 Xenograft (intrarenal inoculation) in NU/NU BALB/C (nude) mice. Conditions: endpoint: mean tumor weight change, higher = larger tumour. The method, then: The antitumor activity of compounds was measured in mice bearing transplantable tumors. Survival or tumor size were measured and the results are expressed as the measurement made in the treated group (T) divided by the measurement made in the vehicle treated control group (C). The tumor model used in this assay is Human Lung LX-1 Xenograft (intrarenal inoculation) in NU/NU BALB/C (nude) mice
In general terms: Xenograft models place foreign cells or tissue in a host animal.

The mark [1] stands for this setting: dose: 18.75 mg/kg/injection, schedule: Q04DX003 (sc), vehicle: Klucel (hydroxypropylcellulose) (HPC).
[2] abbreviates: dose: 200.0 mg/kg/injection, schedule: Q01DX010 (sc), vehicle: saline.
[3] abbreviates: dose: 400.0 mg/kg/injection, schedule: Q01DX010 (sc), vehicle: saline.
The mark [4] stands for this setting: dose: 300.0 mg/kg/injection, schedule: Q04DX003 (sc), vehicle: Klucel (hydroxypropylcellulose) (HPC).
[5] abbreviates: dose: 600.0 mg/kg/injection, schedule: Q04DX003 (sc), vehicle: Klucel (hydroxypropylcellulose) (HPC).
Where [6] appears, read: dose: 400.0 mg/kg/injection, schedule: Q01DX010 (sc), vehicle: saline with Tween-80.
Where [7] appears, read: dose: 600.0 mg/kg/injection, schedule: Q04DX003 (sc), vehicle: saline with Tween-80.
Setting [8] is: dose: 1200.0 mg/kg/injection, schedule: Q04DX003 (sc), vehicle: saline with Tween-80.

Where “and” joins values, the source holds several entries; their conditions need not be identical. Equal entries are not always repeated. Records with an inconclusive call do not appear.

The values below come from PubChem BioAssay AID266 (DTP/NCI, 2004).

Turning to `CC[C@](C)(O)C(=O)O[C@H]1C(=O)O[C@@H]2C[C@H]3C(C)=CC(=O)[C@@H](O)[C@]3(C)[C@H]3[C@@]4(O)OC[C@]32[C@@H]1[C@@H](C)[C@H]4O`, the T/C was 38 % of control (dose: 0.5 mg/kg/injection, schedule: Q01DX010 (sc), vehicle: Klucel (hydroxypropylcellulose) (HPC)) and 17 % of control (dose: 1.0 mg/kg/injection, schedule: Q01DX010 (sc), vehicle: Klucel (hydroxypropylcellulose) (HPC)).

Turning to `O=C(NO)c1ccccc1`, the T/C (dose: 100.0 mg/kg/injection, schedule: Q01DX010 (sc), vehicle: Klucel (hydroxypropylcellulose) (HPC)) is 120 % of control and the T/C (dose: 200.0 mg/kg/injection, schedule: Q01DX010 (sc), vehicle: Klucel (hydroxypropylcellulose) (HPC)) is 150 % of control.

On to `CC(C)CCCCCCCCCCCCC(=O)NCC(=O)NC1C(O)C(O)C(Nc2ncnc3nc[nH]c23)OC1C(O)CO` (stereo not drawn), for which the T/C was 98 % of control (dose: 0.4 mg/kg/injection, schedule: Q01DX010 (sc), vehicle: saline) and 24 % of control (dose: 0.8 mg/kg/injection, schedule: Q01DX010 (sc), vehicle: saline).

As for `NC(CCl)=NCC12CC3CC(CC(C3)C1)C2`, the T/C by setting is: under setting [1], 157 % of control; (dose: 75.0 mg/kg/injection, schedule: Q04DX003 (sc), vehicle: Klucel (hydroxypropylcellulose) (HPC)) 110 % of control.

Consider `CCC1OC(OC)C=CC1=O` (stereo not drawn), for which the T/C reads like this: (dose: 37.5 mg/kg/injection, schedule: Q04DX003 (sc), vehicle: saline) 90 % of control; (dose: 75.0 mg/kg/injection, schedule: Q04DX003 (sc), vehicle: saline) 99 % of control.

For the compound `Cc1cc2nc3[nH]c4ccccc4c3nc2cc1C`, the T/C is 88 % of control (dose: 100.0 mg/kg/injection, schedule: Q01DX010 (sc), vehicle: saline); 190 % of control under setting [2]; 92 % of control under setting [3]; 97 % of control (dose: 800.0 mg/kg/injection, schedule: Q01DX010 (sc), vehicle: saline).

In the case of `CCNC(C)(C)C(SSS)c1ccco1` (stereo not drawn), the T/C (dose: 150.0 mg/kg/injection, schedule: Q04DX003 (sc), vehicle: Klucel (hydroxypropylcellulose) (HPC)) is 82 % of control; the T/C under setting [4] is 84 % of control; the T/C under setting [5] is 76 % of control.

As to `CC1(CO)C(O)CCC2(C)C1CCC1CC3CC12CCC3(O)CO` (stereo not drawn), the T/C is, setting by setting: (dose: 50.0 mg/kg/injection, schedule: Q01DX010 (sc), vehicle: saline with Tween-80) 86 % of control; under setting [6], 34 % of control.

As for `CC1(C)CC2(C)OC2C2(C1)N=NC(=Nc1ccccc1)O2` (stereo not drawn), the T/C (dose: 300.0 mg/kg/injection, schedule: Q04DX003 (sc), vehicle: saline with Tween-80) was 104 % of control; the T/C under setting [7] was 61 % of control; the T/C under setting [8] was 91 % of control.

For `OC1OC2COC(c3ccccc3)OC2C(O)C1O` (stereo not drawn), the T/C is 101 % of control (dose: 300.0 mg/kg/injection, schedule: Q04DX003 (sc), vehicle: water); 117 % of control (dose: 600.0 mg/kg/injection, schedule: Q04DX003 (sc), vehicle: water); 105 % of control (dose: 1200.0 mg/kg/injection, schedule: Q04DX003 (sc), vehicle: water); 90 % of control (dose: 2400.0 mg/kg/injection, schedule: Q04DX003 (sc), vehicle: water).

On to `Nc1ccc(S(=O)(=O)Nc2cnc3c(Cl)cccc3n2)cc1`, for which the T/C by setting is: (dose: 150.0 mg/kg/injection, schedule: Q04DX003 (ip), vehicle: DMSO) 82 % of control; (dose: 300.0 mg/kg/injection, schedule: Q04DX003 (ip), vehicle: DMSO) 89 % of control; (dose: 600.0 mg/kg/injection, schedule: Q04DX003 (ip), vehicle: DMSO) 45 % of control.

Take `N#CN=[N+]([O-])c1ccc(C(=O)O)cc1`: the T/C is 66 % of control (dose: 11.25 mg/kg/injection, schedule: Q04DX003 (sc), vehicle: Klucel (hydroxypropylcellulose) (HPC)); 65 % of control (dose: 22.5 mg/kg/injection, schedule: Q04DX003 (sc), vehicle: Klucel (hydroxypropylcellulose) (HPC)); 47 % of control (dose: 45.0 mg/kg/injection, schedule: Q04DX003 (sc), vehicle: Klucel (hydroxypropylcellulose) (HPC)).

Regarding `Oc1cc2ccccc2c(-c2c(O)c(O)cc3ccccc23)c1O`, the T/C runs as follows: under setting [7], 122 % of control; under setting [8], 95 % of control; (dose: 2400.0 mg/kg/injection, schedule: Q04DX003 (sc), vehicle: saline with Tween-80) 84 % of control.

As for `Cc1ccoc1`, the T/C (dose: 50.0 mg/kg/injection, schedule: Q01DX010 (ip), vehicle: saline with Tween-80) was 109 % of control; the T/C (dose: 100.0 mg/kg/injection, schedule: Q01DX010 (ip), vehicle: saline with Tween-80) was 93 % of control; the T/C (dose: 200.0 mg/kg/injection, schedule: Q01DX010 (ip), vehicle: saline with Tween-80) was 163 % of control; the T/C (dose: 400.0 mg/kg/injection, schedule: Q01DX010 (ip), vehicle: saline with Tween-80) is 80 % of control.

Regarding `CCOC(C)C(/C=N/NC(N)=S)=NNC(N)=S` (stereo not drawn), the T/C reads like this: (dose: 200.0 mg/kg/injection, schedule: Q01DX010 (sc), vehicle: saline with Tween-80) 231 % of control; under setting [6], 233 % of control; (dose: 800.0 mg/kg/injection, schedule: Q01DX010 (sc), vehicle: saline with Tween-80) 78 % of control.

On to `O=S(=O)(CCl)OCCCl`, for which the T/C (dose: 50.0 mg/kg/injection, schedule: Q04DX003 (sc), vehicle: saline with Tween-80) was 122 % of control and the T/C (dose: 100.0 mg/kg/injection, schedule: Q04DX003 (sc), vehicle: saline with Tween-80) was 101 % of control.

Take `Nc1ncnc2c(C3OC(CO)C(O)C3O)[nH]nc12` (stereo not drawn): the T/C by setting is: (dose: 75.0 mg/kg/injection, schedule: Q04DX003 (sc), vehicle: suspension in saline) 83 % of control; (dose: 150.0 mg/kg/injection, schedule: Q04DX003 (sc), vehicle: suspension in saline) 37 % of control.

`O=CC(O)C(O)C(O)C(O)CO` (stereo not drawn): the T/C (dose: 75.0 mg/kg/injection, schedule: Q04DX003 (ip), vehicle: saline) is 103 % of control; the T/C (dose: 150.0 mg/kg/injection, schedule: Q04DX003 (ip), vehicle: saline) is 101 % of control; the T/C (dose: 300.0 mg/kg/injection, schedule: Q04DX003 (ip), vehicle: saline) is 115 % of control; the T/C (dose: 600.0 mg/kg/injection, schedule: Q04DX003 (ip), vehicle: saline) is 88 % of control; the T/C (dose: 1200.0 mg/kg/injection, schedule: Q04DX003 (ip), vehicle: saline) is 95 % of control.

In the case of `Cc1ccc(S(=O)(=O)NC(=O)C2C(=O)CC3(CCCCC3)CC2=O)cc1`, the T/C by setting is: under setting [4], 122 % of control; under setting [5], 101 % of control; (dose: 2400.0 mg/kg/injection, schedule: Q04DX003 (sc), vehicle: Klucel (hydroxypropylcellulose) (HPC)) 84 % of control.

Regarding `NCCCNCCSP(=O)(O)O`, the T/C (dose: 200.0 mg/kg/injection, schedule: Q04DX003 (sc), vehicle: saline) was 99 % of control; the T/C (dose: 400.0 mg/kg/injection, schedule: Q04DX003 (sc), vehicle: saline) was 78 % of control; the T/C (dose: 800.0 mg/kg/injection, schedule: Q04DX003 (sc), vehicle: saline) is 80 % of control.

Take `CN(C)N=Nc1ccc(C(=O)O)cc1`: the T/C was 2 % of control and 4 % of control (dose: 50.0 mg/kg/injection, schedule: Q04DX003 (ip), vehicle: saline); -62 % of control and -40 % of control (dose: 400.0 mg/kg/injection, schedule: Q04DX003 (ip), vehicle: saline).

Consider `CCS/C(SC)=C(/c1ccccc1)[P+](c1ccccc1)(c1ccccc1)c1ccccc1`, for which the T/C (dose: 9.38 mg/kg/injection, schedule: Q04DX003 (sc), vehicle: Klucel (hydroxypropylcellulose) (HPC)) is 79 % of control; the T/C under setting [1] is 76 % of control; the T/C (dose: 37.5 mg/kg/injection, schedule: Q04DX003 (sc), vehicle: Klucel (hydroxypropylcellulose) (HPC)) was 110 % of control.

With `NC(=O)NO`, the T/C reads like this: under setting [2], 60 % of control; under setting [3], 105 % of control.

For the compound `Cc1ccc(S(=O)(=O)NC(=O)OC23COCN2COC3)cc1`, the T/C is 118 % of control (dose: 200.0 mg/kg/injection, schedule: Q04DX003 (sc), vehicle: saline with Tween-80); 121 % of control (dose: 400.0 mg/kg/injection, schedule: Q04DX003 (sc), vehicle: saline with Tween-80); 153 % of control (dose: 800.0 mg/kg/injection, schedule: Q04DX003 (sc), vehicle: saline with Tween-80); 112 % of control (dose: 1600.0 mg/kg/injection, schedule: Q04DX003 (sc), vehicle: saline with Tween-80).
